In one assay the target is T1, LGC-50 (Caenorhabditis elegans, UniProt P41849).
T1 construct: lgc-50 ORF F […]; expressed in transfected cells; host or cells: Xenopus laevis oocytes injected with cRNA (plasmid pJML002, KSM: lgc-50 cDNA)
T1 sequence (P41849 20-491): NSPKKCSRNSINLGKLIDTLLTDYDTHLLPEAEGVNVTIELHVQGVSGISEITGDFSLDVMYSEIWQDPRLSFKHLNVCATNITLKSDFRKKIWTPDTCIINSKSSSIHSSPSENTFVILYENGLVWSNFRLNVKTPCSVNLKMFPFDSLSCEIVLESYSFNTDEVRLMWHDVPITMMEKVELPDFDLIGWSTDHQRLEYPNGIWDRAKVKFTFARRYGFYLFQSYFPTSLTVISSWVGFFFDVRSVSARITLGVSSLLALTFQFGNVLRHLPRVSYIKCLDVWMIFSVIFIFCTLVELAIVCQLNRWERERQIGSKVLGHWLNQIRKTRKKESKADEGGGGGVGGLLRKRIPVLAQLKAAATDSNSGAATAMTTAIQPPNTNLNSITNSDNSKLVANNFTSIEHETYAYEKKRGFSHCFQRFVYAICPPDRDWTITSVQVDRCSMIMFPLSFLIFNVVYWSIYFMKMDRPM
As to the kind of experiment: Two-electrode voltage clamp, agonist-evoked currents in Xenopus oocytes expressing LGC-50. Type of assay: cell-based, C. elegans. An excerpt: We aimed to deorphanize C. elegans LGICs without known ligands, focusing on 5 genes in the putative monoamine-gated group: lgc-50; lgc-51; lgc-52; lgc-54; and lgc-56 (previously named ggr-3). Using heterologous overexpression in Xenopus oocytes and two-electrode voltage clamp recordings, we measured channel activity evoked by application of 11 monoamines and other neurotransmitters.
Defolliculated Xenopus laevis oocytes were obtained from EcoCyte Bioscience (Dortmund, Germany) and maintained in ND96 (in mM: 96 NaCl, 1 MgCl2, 5 HEPES, 1.8 CaCl2, 2 KCl) solution at 16°C for 3-5 days.
5'-capped cRNA was synthesized in vitro using the T3 mMessage mMachine transcription kit according to manufacturer’s protocol (Thermo Fischer Scientific, CA, USA). RNA was then purified using the GeneJET RNA purification kit (Thermo Fischer Scientific, CA, USA) prior to cRNA injection. […]
(§1) Two-electrode voltage clamp recordings were carried out using the Robocyte2 recording system or a manual TEVC set up, using an OC-725D amplifier (Multi Channel Systems, Reutlingen, Germany) and paired with a custom-made recording chamber and agar bridges from reference and bath electrodes. […] Data was recorded using WinWCP or RoboCyte2 control software, manual data was filtered at 10 Hz.
Dose response curves were calculated from the peak current during a 10 s agonist stimulation in ND96 solution, with a 60 s ND96 wash in between doses. […] Normalized dose response data was fitted to a nonlinear curve using a four parameters variable slope and the EC50 and Hill slope was calculated. […] Ion selectivity was determined using a voltage ramp protocol of 20mV/s ranging from −80mV to +60mV in the presence or absence of the primary agonist in three different solutions: ND96, NMDG (Na^+ free) and Na Gluconate (low Cl^-) solutions. […] Antagonist dose response curves were calculated from the peak current during a 10 s agonist + antagonist stimulation in ND96 solution, with the agonist concentration remaining constant. […] Kinetic measurements were calculated from a 60 s agonist perfusion. […]

Assay [1] addresses T2, LGC-50 S335A, T348A, S353A (Caenorhabditis elegans, UniProt P41849, S335A/S353A/T348A).
T2 construct: Plasmid: KSM: lgc-50 (cDNA, S335A, T348A, S353A); expressed in transfected cells; host or cells: Xenopus laevis oocytes injected with cRNA (plasmid pIH128)
As to the kind of experiment: Two-electrode voltage clamp, 5-HT evoked dose response, LGC-50 phospho-dead mutant. Type of assay: cell-based, C. elegans.
Source text: In addition to this region, we also investigated three upstream predicted phosphorylation sites. Phosphorylation of the M3/4 loop has previously been implicated in the trafficking and cell surface recycling of GABAA receptors.[23]^,[24] The first site in the M3/4 loop of LGC-50, S335, is predicted to be a cdc2 site, and T348 and S353 are predicted protein kinase C (PKC) or PKA sites (Table S2).[25]^,[26] We introduced both phosphorylation-dead alanine mutations and phosphomimic aspartate mutations into these sites to assess their effect on receptor trafficking. […]
as §1
Dose response curves were calculated from the peak current during a 10 s agonist stimulation in ND96 solution, with a 60 s ND96 wash in between doses. […] Normalized dose response data was fitted to a nonlinear curve using a four parameters variable slope and the EC50 and Hill slope was calculated. […] Kinetic measurements were calculated from a 60 s agonist perfusion. […]

T2 sequence (P41849 20-491 S335A/T348A/S353A): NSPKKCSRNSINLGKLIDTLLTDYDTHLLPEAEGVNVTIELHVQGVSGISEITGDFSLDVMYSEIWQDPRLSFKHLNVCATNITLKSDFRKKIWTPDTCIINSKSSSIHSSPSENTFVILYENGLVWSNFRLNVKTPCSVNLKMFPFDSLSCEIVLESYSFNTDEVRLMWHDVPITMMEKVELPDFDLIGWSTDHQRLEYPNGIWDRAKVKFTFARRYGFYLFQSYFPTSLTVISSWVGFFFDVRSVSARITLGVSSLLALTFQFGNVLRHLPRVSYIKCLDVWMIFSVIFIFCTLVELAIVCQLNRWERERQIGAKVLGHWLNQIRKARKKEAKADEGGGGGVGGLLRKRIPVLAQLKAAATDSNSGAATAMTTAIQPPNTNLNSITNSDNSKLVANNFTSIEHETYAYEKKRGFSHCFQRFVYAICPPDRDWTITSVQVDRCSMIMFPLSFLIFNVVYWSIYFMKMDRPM

With `NCCc1c[nH]c2ccc(O)cc12` [5-HT, serotonin], the EC50 on LGC-50 (Xenopus oocytes, TEVC, current normalized to Imax, Hill equation with variable slope, read-out: EC50, agonist-evoked dose response, LGC-50) was found to be 940 nM; in assay [1], 570 nM. Besides, on LGC-50 (ligands screened at 100 μM, oocytes clamped at −60 mV), the “Channel gating in ligand screen, LGC-50” value is “gated”.

For the origin of these results see paper PMC8536830 (Current Biology, 2021).
